Values joined by “and” are separate entries in the source; they are usually repeats but may differ in a detail not shown here. Equal values may be shown once.
What follows are molecules tested against T1, human Factor VIIa (Homo sapiens, UniProt P08709) (assay: Factor VIIa assay (hydrolysis of chromogenic substrate, Ki)). Conditions: several values in one cell = repeat determinations.
T1 construct: with about 1% of the total amount in the proteolytically active form factor VIIa; purchased Haematologic Technologies (plasma-purified) or Novo Nordisk (recombinant)
T1 sequence (P08709 213-466 limits assumed): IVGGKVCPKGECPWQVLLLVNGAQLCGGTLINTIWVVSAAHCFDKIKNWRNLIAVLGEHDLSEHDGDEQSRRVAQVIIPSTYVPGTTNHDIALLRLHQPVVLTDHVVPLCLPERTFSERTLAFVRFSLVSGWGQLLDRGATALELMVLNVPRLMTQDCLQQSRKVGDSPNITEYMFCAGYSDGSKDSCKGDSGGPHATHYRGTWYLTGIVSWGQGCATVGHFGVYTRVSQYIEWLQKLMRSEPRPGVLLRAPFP
T1 sequence (P08709 61-212 limits assumed): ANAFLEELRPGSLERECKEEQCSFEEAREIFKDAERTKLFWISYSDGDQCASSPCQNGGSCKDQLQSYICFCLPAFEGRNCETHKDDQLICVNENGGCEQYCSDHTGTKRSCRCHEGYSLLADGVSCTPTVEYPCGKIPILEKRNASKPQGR
T1 sequence (P13726 33-251 partner limits assumed): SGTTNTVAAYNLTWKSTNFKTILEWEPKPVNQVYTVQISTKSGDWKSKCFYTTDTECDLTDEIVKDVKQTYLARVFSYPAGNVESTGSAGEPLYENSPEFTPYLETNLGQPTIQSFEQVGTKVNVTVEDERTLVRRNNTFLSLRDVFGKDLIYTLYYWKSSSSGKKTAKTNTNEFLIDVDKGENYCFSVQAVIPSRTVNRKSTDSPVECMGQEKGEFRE
Assay type: biochemical
With `COC(=O)Nc1ccc(S(=O)(=O)C(C)C)c([C@H]2CCCN2C(=O)C(Nc2ccc(F)c3c2CNC3=O)c2ccc(OC)c(OC)c2)c1` (single isomer, unassigned) [Example 6] the Ki was over 13000 nM. `CC[C@H]1CNC(=O)c2cc(NC(C(=O)N3CCC[C@@H]3c3cc(NC(=O)OC)ccc3S(=O)(=O)C(C)C)c3ccc(OC)c(OC)c3)ccc21` (single isomer, unassigned) [Example 18] was tested, and the Ki was 41 nM and 88 nM. With `COC(=O)Nc1ccc(S(=O)(=O)C2CC2)c([C@H]2CCCN2C(=O)[C@H](Nc2ccc3nc[nH]c(=O)c3c2)c2ccc(F)c(OC)c2)c1` (single isomer, unassigned) [Example 22] the Ki was < 5 nM and 3.5 nM. With `COc1cc([C@@H](Nc2ccc3c(c2)C(=O)NC3)C(=O)N2CC[C@H](C(=O)O)[C@@H]2c2ccccc2S(=O)(=O)C2CC2)ccc1F` [Example 28, (2R,3S)-2-(2-(cyclopropylsulfonyl)phenyl)-1-((R)-2-(4-fluoro-3-methoxyphenyl)-2-(3-oxoisoindolin-5-ylamino)acetyl)pyrrolidine-3-carboxylic acid] the Ki was 60 nM.
